Reference: patent US7064144B2, “Imidazole derivatives as adenosine deaminase inhibitors” (Astellas Pharma Inc., priority 2001, dated 2006)

Tests used:
[1] = target: T1, Human ADA (Homo sapiens, UniProt P00813); test: Adenosine Deaminase (ADA) Enzyme Assay; assay type: biochemical; conditions: 50% inhibition of Vmax vs vehicle; 0.16 μg/ml ADA, 0.1 mM adenosine, 10 mM phosphate buffer saline pH 7.4, room temperature, A265
T1 construct: made in house
T1 sequence (P00813 1-363): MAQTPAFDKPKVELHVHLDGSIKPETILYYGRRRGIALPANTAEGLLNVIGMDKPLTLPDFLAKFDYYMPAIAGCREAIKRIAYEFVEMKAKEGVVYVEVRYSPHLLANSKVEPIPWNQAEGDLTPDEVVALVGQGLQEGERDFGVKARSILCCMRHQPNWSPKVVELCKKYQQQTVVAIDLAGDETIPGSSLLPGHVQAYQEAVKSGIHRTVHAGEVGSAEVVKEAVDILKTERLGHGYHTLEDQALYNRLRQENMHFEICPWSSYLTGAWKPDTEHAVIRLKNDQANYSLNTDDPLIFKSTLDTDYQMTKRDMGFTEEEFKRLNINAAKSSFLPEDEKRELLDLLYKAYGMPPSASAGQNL
Description: Adenosine Deaminase (ADA) Enzyme Assay
• 1-[(2S,3R)-5-(1,1′-biphenyl-3-yloxy)-2-hydroxy-3-pentyl]imidazole-4-carboxamide (Example 20) • 1-{(2S,3R)-2-hydroxy-5-[3-(2-thienyl)phenoxy]-3-pentyl}imidazole-4-carboxamide (Example 32) • 1-[(2S,3R)-2-hydroxy-5-(2-quinolyloxy)-3-pentyl]imidazole-4-carboxamide (Example 49) • 1-[(2S,3R)-2-hydroxy-5-(2-naphthylthio)-3-pentyl]imidazole-4-carboxamide (Example 76) • 1-[(2S,3R)-2-hydroxy-5-(2-quinolylthio)-3-pentyl]imidazole-4-carboxamide (Example 78) Test Method:
The reaction velocity (V) is measured by a change in absorbance at 265 nm (A265) resulting from the deamination of adenosine. Human ADA was expressed and purified from ADA-deficient bacterial strain. Reaction mixtures of a total volume of 200 μl contained 0.16 μg/ml of ADA and 0.1 mM of adenosine and test compound in 10 mM phosphate buffer saline (pH 7.4). The reaction was started by addition of ADA to a mixture of adenosine and test compound. The reaction was followed at room temperature by recording decrease in A265 for 3 minutes in SPECTRAmax 250 (Molecular Devices, USA) to automatically calculate Vmax. Inhibitory potency of test compound was expressed as IC50 value, the drug concentration required to produce 50% inhibition of Vmax in comparison to vehicle treatment.

C[C@H](O)[C@H](CSc1cccc2ccccc12)n1cnc(C(N)=O)c1.Cl
melting point: > 168 °C (dec.)

C[C@H](O)[C@@H](CCOc1cccc(-c2ccccc2)c1)n1cnc(C(N)=O)c1 [Example 20, 1-[(2S,3R)-5-(1,1′-biphenyl-3-yloxy)-2-hydroxy-3-pentyl]imidazole-4-carboxamide]
IC50 [1]: < 20 nM

C[C@H](O)[C@@H](CCOc1ccc(-c2ccccc2)cc1)n1cnc(C(N)=O)c1 [Example 28, 1-[(2S,3R)-5-(1,1′-biphenyl-4-yloxy)-2-hydroxy-3-pentyl]imidazole-4-carboxamide]
melting point: 191 to 193 °C

C[C@H](O)[C@@H](CCOc1cccc(-c2cccs2)c1)n1cnc(C(N)=O)c1 [Example 32, 1-{(2S,3R)-2-hydroxy-5-[3-(2-thienyl)phenoxy]-3-pentyl}imidazole-4-carboxamide]
IC50 [1]: < 20 nM

C[C@H](O)[C@@H](CCOc1ccc2ccccc2n1)n1cnc(C(N)=O)c1 [Example 49, 1-[(2S,3R)-2-hydroxy-5-(2-quinolyloxy)-3-pentyl]imidazole-4-carboxamide]
IC50 [1]: < 20 nM

C[C@H](O)[C@@H](CCOc1ccc2c(ccn2C)c1)n1cnc(C(N)=O)c1 [Example 75, 1-[(2S,3R)-2-hydroxy-5-(1-methyl-1H-indol-5-yloxy)-3-pentyl]imidazole-4-carboxamide]
melting point: 211 to 213.5 °C

C[C@H](O)[C@@H](CCSc1ccc2ccccc2c1)n1cnc(C(N)=O)c1 [Example 76, 1-[(2S,3R)-2-hydroxy-5-(2-naphthylthio)-3-pentyl]imidazole-4-carboxamide]
IC50 [1]: < 20 nM

C[C@H](O)[C@@H](CCSc1ccc2ccccc2n1)n1cnc(C(N)=O)c1 [Example 78, 1-[(2S,3R)-2-hydroxy-5-(2-quinolylthio)-3-pentyl]imidazole-4-carboxamide]
IC50 [1]: < 20 nM

C[C@H](O)[C@@H](COc1ccc(Cl)c(Cl)c1)n1cnc(C(N)=O)c1 [Example 81, 1-{(1R,2S)-1-[(3,4-dichlorophenoxy)methyl]-2-hydroxypropyl}-1H-imidazole-4-carboxamide]
melting point: 115 to 121 °C

C[C@H](O)[C@@H](CCOc1cccc(-c2ccc(Cl)nc2)c1)n1cnc(C(N)=O)c1 [Example 87, 1-{(2S,3R)-5-[3-(6-chloro-3-pyridyl)phenoxy]-2-hydroxy-3-pentyl}imidazole-4-carboxamide]
melting point: 166 to 168 °C

C[C@H](O)[C@@H](CCOc1ccc2ccc(Cl)cc2c1)n1cnc(C(N)=O)c1 [Example 97, 1-[(2S,3R)-5-(7-chloro-2-naphthyloxy)-2-hydroxy-3-pentyl]imidazole-4-carboxamide]
melting point: 139 to 141 °C

C[C@H](O)[C@H](CSc1ccc2ccccc2c1)n1cnc(C(N)=O)c1 [Example 102, 1-{(1R,2S)-2-hydroxy-1-[(2-naphthylthio)methyl]propyl}-1H-imidazole-4-carboxamide]
melting point: > 108 °C (dec.)

C[C@H](O)[C@H](CSc1cccc(Cl)c1Cl)n1cnc(C(N)=O)c1 [Example 104, 1-{(1R,2S)-1-{[(2,3-dichlorophenyl)thio]methyl}-2-hydroxypropyl}-1H-imidazole-4-carboxamide]
melting point: > 120 °C (dec.)
